The IC50 is the point on the concentration scale where inhibition reaches its midpoint.

Test [1] is described as follows: Compound was evaluated for its receptor binding affinity at [3H]cyclo[D-pen2,p-cl-Phe4,D-Pen5](delta receptor) to opioid receptor in guinea pig brain.
Test [2] is filed under the species Cavia porcellus. The experiment in a line: Shift in the activity was determined; ns= no significant shift observed with 1000 nM CTAP used as a mu antagonist. Format: functional.
For test [3], the species on record is Cavia porcellus. Briefly: Ability to inhibit the electrically evoked contraction of the guinea pig ileum(GPI) of the Compound was determined. Format: functional.
For test [4], the target named is Kappa-type opioid receptor (Cavia porcellus, UniProt P41144). Briefly: Binding affinity towards Opioid receptor kappa 1 in guinea pig brain using [3H]U-69593 as radioligand.
The target of another test is Mu-type opioid receptor (Cavia porcellus, UniProt P97266). Briefly: Binding affinity towards Opioid receptor mu 1 in guinea pig brain using [3H]DAMGO as radioligand.
Sequence of Mu-type opioid receptor (P97266 whole entry): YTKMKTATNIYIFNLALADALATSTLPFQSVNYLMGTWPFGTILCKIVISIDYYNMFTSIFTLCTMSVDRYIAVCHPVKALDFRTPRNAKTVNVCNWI

Sequence of Kappa-type opioid receptor (P41144 whole entry): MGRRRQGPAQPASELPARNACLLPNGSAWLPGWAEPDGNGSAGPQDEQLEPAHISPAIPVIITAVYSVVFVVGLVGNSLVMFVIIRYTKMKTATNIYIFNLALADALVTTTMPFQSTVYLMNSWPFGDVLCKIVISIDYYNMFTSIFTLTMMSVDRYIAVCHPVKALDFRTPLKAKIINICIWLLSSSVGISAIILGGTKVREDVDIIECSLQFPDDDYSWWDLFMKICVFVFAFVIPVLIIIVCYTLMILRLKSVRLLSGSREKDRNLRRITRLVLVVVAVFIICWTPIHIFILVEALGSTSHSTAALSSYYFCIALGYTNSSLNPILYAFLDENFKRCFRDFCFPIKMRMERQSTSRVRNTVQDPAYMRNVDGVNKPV

Regarding `CC[C@H](C)[C@H](NC(=O)[C@H](CCCNC(=N)N)NC(=O)[C@H](CCCNC(=N)N)NC(=O)[C@H](CC(C)C)NC(=O)[C@H](Cc1ccccc1)NC(=O)CNC(=O)CNC(=O)[C@@H](N)Cc1ccc(O)cc1)C(=O)N[C@@H](CCCNC(=N)N)C(=O)N1CCC[C@H]1C(=O)N[C@@H](CCCCN)C(N)=O`, the half-inhibitory concentration (IC50) in test [1] was 25.5 nM; in the test filed under Cavia porcellus [2], “Not Active”.

Consider `CC[C@H](C)[C@H](NC(=O)[C@H](CCCN=C(N)N)NC(=O)[C@H](CCCN=C(N)N)NC(=O)[C@H](CC(C)C)NC(=O)[C@H](Cc1ccccc1)NC(=O)[C@H](C)NC(=O)CNC(=O)[C@@H](N)Cc1ccc(O)cc1)C(=O)N[C@@H](CCCN=C(N)N)C(=O)N1CCC[C@H]1C(=O)N[C@@H](CCCCN)C(N)=O`, for which the IC50 in the test filed under Cavia porcellus [3] is 1.7 nM; in the test filed under Cavia porcellus [2], “Not Active”; in test [4], 1.1 nM; on Mu-type opioid receptor, 210 nM.

Take `CC[C@H](C)[C@H](NC(=O)[C@H](CCCN=C(N)N)NC(=O)[C@H](CCCN=C(N)N)NC(=O)[C@H](CC(C)C)NC(=O)[C@H](Cc1ccccc1)NC(=O)[C@@H](C)NC(=O)CNC(=O)[C@@H](N)Cc1ccc(O)cc1)C(=O)N[C@@H](CCCN=C(N)N)C(=O)N1CCC[C@H]1C(=O)N[C@@H](CCCCN)C(N)=O`: the IC50 in the test listed under Cavia porcellus [3] was 8.1 nM; in the test listed under Cavia porcellus [2], “Not Active”; in test [4], 0.76 nM; at Mu-type opioid receptor it was 260 nM.

For the origin of these results see ChEMBL document CHEMBL1128236, “Highly kappa receptor-selective dynorphin A analogues with modifications in position 3 of dynorphin A(1-11)-NH2” (J Med Chem, 1995).
